{"source": "patent US4407812A", "about": "“Etheral imidazoles and use in treatment of thromboses” (Laboratoires Chauvin-Blache, priority 1980, dated 1983)", "key": {"[1]": {"target": "T1, platelet thromboxane synthetase (Homo sapiens, UniProt P24557)", "T1 construct": "endogenous in cells; host or cells: washed platelets from platelet-rich plasma of venous blood", "T1 sequence (P24557 1-533)": "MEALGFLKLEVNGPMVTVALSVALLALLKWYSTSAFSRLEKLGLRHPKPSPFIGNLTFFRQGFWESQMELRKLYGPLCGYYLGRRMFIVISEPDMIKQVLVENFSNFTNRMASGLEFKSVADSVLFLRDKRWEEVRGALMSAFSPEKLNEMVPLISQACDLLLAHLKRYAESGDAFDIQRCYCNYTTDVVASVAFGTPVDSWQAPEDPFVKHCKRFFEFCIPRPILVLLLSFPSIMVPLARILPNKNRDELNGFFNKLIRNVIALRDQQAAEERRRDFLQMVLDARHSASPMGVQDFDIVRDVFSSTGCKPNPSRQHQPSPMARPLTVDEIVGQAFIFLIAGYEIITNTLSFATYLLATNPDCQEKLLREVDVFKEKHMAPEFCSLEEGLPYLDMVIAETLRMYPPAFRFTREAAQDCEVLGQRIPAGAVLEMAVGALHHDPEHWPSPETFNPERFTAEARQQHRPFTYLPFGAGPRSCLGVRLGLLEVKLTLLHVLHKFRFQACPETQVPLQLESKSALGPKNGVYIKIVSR", "assay": "Inhibition of platelet thromboxane synthetase (14C-arachidonic acid incubated with washed platelet suspension, TLC)", "assay_type": "cell-based", "conditions": "for IC50: 14C-arachidonic acid, 10 min, 37° C., pH 7.5, read-out: 50% inhibitory concentration (IC50)", "method": "1.1 Inhibition of platelet thromboxane synthetase\nPlatelet rich plasma (PRP) is prepared by centrifugation of venous blood at 150 g×10 min. The platelets are sedimented at 2000 g×20 min. and washed in a tris-HCl buffer at pH 7.5 (15 mM) containing EDTA (1.5 mM), NaCl, (150 mM) and KCl (5 mM). The platelet pellet is then suspended in a volume of tris-HCl (50 mM) at pH 7.5 corresponding to one-half the original PRP volume. Aliquots of platelet suspension (0.5 ml) are incubated with 1 μg ^14 C-arachidonic acid (specific activity=50 mCi/mmole) as the Na salt for 10 min. at 37° C. in the presence or the absence of test material. On completion of the reaction, the incubate is cooled to 0°-4° C., made acidic and salted by addition of citric acid and NaCl and then extracted with 2×2 ml ethyl acetate. A PGE2 standard is added to the extract which, after evaporation to dryness, is submitted to a bidimensional chromatography over a thin layer of silica (Merck F 254) in the systems: (1) benzene/dioxan/acetic acid (60:30:3); (2) chloroform/methanol/acetic acid/water (90:8:1:0.8).\nThe PGE2 standard is visualized with phosphomolybdic acid in the hot. The radioactivity corresponding to the metabolites of arachidonic acid is measured with a Berthold scanner. […]"}, "[2]": {"test_system": "collagen-induced platelet aggregation", "assay": "Inhibition of collagen-induced platelet aggregation", "assay_type": "cell-based", "conditions": "Homo sapiens, collagen 20 μg, control 100", "method": "(§1) 3--Inhibition of collagen-induced platelet aggregation and determination of the inhibition of thromboxane synthesis.\n(§2) Venous blood sampled from volunteers is collected on sodium citrate. The platelet rich plasma (PRP) is prepared by centrifugation at 150 g×10 min.\n(§3) 300 μl PRP are incubated in siliconized tubes in an aggregometer in the presence or the absence of test material dissolved in 100 μl buffer, and 20 μg collagen (Stago) are then added. Platelet aggregation is recorded by the decrease of the optical density. After 4 minutes, an acetylsalicylic acid solution (2×10^-4 M final) is added to block the synthesis of prostanoids, and thromboxane B2 is titrated in the liquid phase of the incubate by radioimmunoassay."}, "thromboxane synthesis": {"test_system": "thromboxane synthesis", "assay": "Inhibition of thromboxane synthesis in collagen-stimulated PRP (thromboxane B2 radioimmunoassay)", "assay_type": "cell-based, human", "conditions": "collagen 20 μg, control 900", "method": "as §1, §2, §3"}, "[3]": {"test_system": "arachidonic acid-induced platelet aggregation", "assay": "Ex vivo platelet aggregation in rabbits (arachidonic acid-induced)", "set-up": "species or system rabbit", "conditions": "5 mg/kg subcutaneous, two consecutive days, 2 hrs after second administration, arachidonic acid 2 mM", "method": "2.1 Ex vivo platelet aggregation in rabbits\nGroups of 3 male rabbits are treated subcutaneously for two consecutive days and their plasma is taken two hrs after the second administration. Arachidonic acid-induced (2 mM) platelet aggregation is measured by the turbidimetric method according to Born."}, "[4]": {"assay": "Acute toxicity, LD50 on intraperitoneal administration to Wistar rats", "conditions": "rat, in vivo, ip, mean ± 5% confidence interval", "source_text": "(§4) In Table VI are set forth results of the determination of the LD50 of Compound A on intraperitoneal administration to Wistar rats and Swiss mice."}, "[5]": {"assay": "Acute toxicity, LD50 on intraperitoneal administration to Swiss mice", "conditions": "mouse, in vivo, ip, mean ± 5% confidence interval", "source_text": "as §4"}, "[6]": {"assay": "Bleeding time (ear) in rabbits", "assay_type": "in vivo, rabbit", "conditions": "5 mg/kg subcutaneous, mean ± standard deviation", "method": "2.2 Bleeding time (ear) in rabbits\nGroups of 3 male rabbits are treated subcutaneously with the test materials. Bleeding time (BT) is determined just before, and then 2 hours and 4 hours after their administration according to a standard procedure, by a \"blind\" acting experimenter."}}, "note": "Structures can show the parent of a compound that is named as a salt.", "data": [{"smiles": "CCCCCC(/C=C/n1ccnc1)OC(C)=O", "note": "(stereo not drawn) [D]", "values": [{"measurement": "IC50", "setting": "[1]; platelet suspension", "result": 1500, "unit": "nM"}]}, {"smiles": "CCCCCC(=O)OC(/C=C/n1ccnc1)CCCCC", "note": "(stereo not drawn) [E]", "values": [{"measurement": "IC50", "setting": "[1]; platelet suspension", "result": 1500, "unit": "nM"}]}, {"smiles": "CCCCCC(/C=C/n1ccnc1)OC(=O)c1cccnc1", "note": "(stereo not drawn) [Compound B, (E)-1-(3-hydroxy-octen-1-yl)imidazole nicotinic ester dihydrochloride]", "values": [{"measurement": "activity at 10 µM", "setting": "[2]; 10^-5 M", "result": 7, "unit": "%"}, {"measurement": "activity at 1 µM", "setting": "[2]; 10^-6 M", "result": 50, "unit": "%"}, {"measurement": "IC50", "setting": "[1]; platelet suspension", "result": 1000, "unit": "nM"}, {"measurement": "T × B2 formed", "setting": "thromboxane synthesis; 10^-5 M", "result": 100, "unit": "pmole/ml PRP"}, {"measurement": "T × B2 formed", "setting": "thromboxane synthesis; 10^-6 M", "result": 400, "unit": "pmole/ml PRP"}]}, {"smiles": "CCCCCC(/C=C/n1ccnc1)OCc1ccccn1", "note": "(stereo not drawn) [G, (E)-1-(3-hydroxy-octen-1-yl)imidazole 2-pyridyl methyl ether fumarate]", "values": [{"measurement": "IC50", "setting": "[1]; platelet suspension", "result": 1500, "unit": "nM"}]}, {"smiles": "CCCCCC(O)/C=C/n1ccnc1", "note": "(racemic) [Compound A, (E)-1-(3-hydroxy-octen-1-yl)imidazole (racemic)]", "values": [{"measurement": "Deaggregation rate", "setting": "[3]; controls 5", "result": 3, "unit": "arbitrary units"}, {"measurement": "Maximum aggregation", "setting": "[3]; controls 40", "result": "28 % of maximum aggregation"}, {"measurement": "Aggregation rate", "setting": "[3]; controls 56", "result": 32, "unit": "arbitrary units"}, {"measurement": "LD50", "setting": "[4]; F", "result": "250 ± 16", "unit": "mg/kg"}, {"measurement": "LD50", "setting": "[4]; M", "result": "270 ± 12", "unit": "mg/kg"}, {"measurement": "LD50", "setting": "[5]; F", "result": "164 ± 6", "unit": "mg/kg"}, {"measurement": "LD50", "setting": "[5]; M", "result": "166 ± 7", "unit": "mg/kg"}, {"measurement": "Bleeding time, Time 2 hours", "setting": "[6]; 2 hours after administration, controls 85 ± 31", "result": "165 ± 38", "unit": "s"}, {"measurement": "Bleeding time, Time 4 hours", "setting": "[6]; 4 hours after administration, controls 87 ± 29", "result": "102 ± 19", "unit": "s"}, {"measurement": "Bleeding time, Time 0", "setting": "[6]; just before administration, controls 70 ± 23", "result": "80 ± 27", "unit": "s"}, {"measurement": "IC50", "setting": "[1]; platelet suspension", "result": 2500, "unit": "nM"}]}, {"smiles": "CCCCCC(/C=C/n1ccnc1)OC(=O)c1ccccc1", "note": "(stereo not drawn) [C]", "values": [{"measurement": "IC50", "setting": "[1]; platelet suspension", "result": 1500, "unit": "nM"}]}, {"smiles": "CCCCCC(/C=C/n1ccnc1)OCc1ccccc1", "note": "(stereo not drawn) [F]", "values": [{"measurement": "IC50", "setting": "[1]; platelet suspension", "result": 1000, "unit": "nM"}]}, {"smiles": "c1c[nH]cn1", "note": "[Imidazole, imidazole]", "values": [{"measurement": "inhibition of the formation of thromboxane A2 (FIG. 2)", "setting": "[1]; measured by its stable degradation product", "result": "inhibits the formation of thromboxane A2"}, {"measurement": "PGE2 formed concomitantly to thromboxane inhibition (FIG. 2)", "setting": "[1]; platelet suspension", "result": "increasing amounts of PGE2 are formed"}, {"measurement": "IC50", "setting": "[1]; platelet suspension", "result": 50000, "unit": "nM"}]}]}
